Measurements reported in patent US10238645B2 (priority 2009, dated 2019).
Read-outs that look alike come from different tables or passages of the source.

Key:
[1] = Open label pharmacokinetic study GW01-0804: serum pharmacokinetics; details: for Geometric LS Mean, Reference (trough serum concentration) / Geometric LS Mean, Test (trough serum concentration): Primary steady-state analysis
Description: Subjects stayed at the study center overnight during the treatment initiation visit (Day 1, first evening application) and the end-of-treatment visit (Day 21, last evening application). […] In addition, serum PK samples were collected in the evening prior to application on Days 7 and 14 to determine trough concentrations for steady-state analysis.
In addition, single blood draws for PK analysis of trough concentrations to determine steady state were obtained on Day 7 and Day 14 (in the evening prior to application). Blood samples could be obtained within ±5 minutes of the target sampling time.
Pharmacokinetic variables will be calculated from the serum concentration data using standard, non-compartmental methods.

[2] = Oral (gavage) carcinogenicity study, 24 months; assay type: in vivo; details: Wistar rats, up to 6 mg/kg 2×/week females (50×MRHD), 4 mg/kg 2×/week males (40×MRHD), 3 mg/kg 7×/week (25×MRHD)
[3] = Single dose (oral, intraperitoneal, subcutaneous, intravenous) and repeat dose toxicity studies; details: for LD50: in vivo
[4] = Systemic embryofetal development study, oral; assay type: in vivo; details: rats
Description: (§1) Note: The animal multiples of human exposure calculations were based on daily dose comparisons in this label.
Systemic embryofetal development studies were conducted in rats and rabbits.

[5] = rats, oral
Description: A combined fertility and peri- and post-natal development study was conducted in rats.

[6] = 52-week dermal photo-carcinogenicity study; assay type: in vivo; details: hairless mice, imiquimod added to the vehicle cream
Excerpt: The enhancement of ultraviolet carcinogenicity is not necessarily dependent on phototoxic mechanisms. Therefore, patients should minimize or avoid natural or artificial sunlight exposure to the affected areas.
In a 52-week dermal photo-carcinogenicity study, the median time to onset of skin tumor formation was decreased in hairless mice following chronic topical dosing (3×/week; 40 weeks of treatment followed by 12 weeks of observation) with concurrent exposure to UV radiation (5 days per week) with vehicle alone.

[7] = Acute dermal toxicity study under occlusion; assay type: in vivo, rabbits
[8] = Multiple oral imiquimod doses (overdosage); assay type: in vivo, human; details: multiple oral doses of >200 mg
[9] = Systemic embryofetal development study, intravenous; assay type: in vivo; details: rabbits
Excerpt: as §1

[10] = test system: rabbit left ventricular wedge preparation; experiment: Arterially perfused rabbit left ventricular wedge preparation (QT, QRS, Tp-e, arrhythmogenesis)
Description: New Zealand White rabbits, either sex weighing 2.3-2.8 kg were anticoagulated with heparin and anesthetized with ketamine/xylazine (40-50 mg/0.5-1.0 mg, per kg, i.v.). The chest was opened via a left thoracotomy, and the heart was excised and placed in a cardioplegic solution consisting of cold (4° C.) normal Tyrode's solution. Transmural wedges with dimensions of approximately 1.5 cm wide and 2-3 cm long were dissected from the left ventricle as described before (Liu et al, Heart Rhythm 2006; 3:948-956). The tissue was cannulated via a small branch of the left anterior descending artery and perfused with cardioplegic solution. […] The ventricular wedge was allowed to equilibrate in the tissue bath until electrically stable for one hour. The preparations were stimulated at basic cycle lengths (BCL) of 1000 and 2000 ms using bipolar silver electrodes insulated except at the tips and applied to the endocardial surface.
The QT interval was defined as the time from the onset of the QRS to the point at which the final downslope of the T wave crosses the isoelectric line. Transmembrane action potential from the endocardium (Endo) was recorded for identification of EADs only when QT prolongation >30% via a customer-made amplifier. Transmural dispersion of repolarization (TDR) was defined as the interval between the end and the peak of T wave (Tp-e).
The ratio of Tp-e to QT was calculated. • (6) Arrhythmic phenomena, including spontaneous R-on-T ectopic beats and TdP, were recorded if they occurred. 3.5 To Estimate Relative TdP Risk
The relative TdP risk of each compound was estimated according in which the Tp-e/QT ratio and […] phenomena were emphasized.
Results were presented as mean±SEM. Statistical analysis was performed using the Student's t-test. A p<0.05 is considered as statistically significant when compared the values at control perfusion.

[11] = Genotoxicity tests (five in vitro, three in vivo); details: five in vitro and three in vivo genotoxicity tests

CC(C)Cn1cnc2c(N)nc3ccccc3c21 [Imiquimod (R-837)]
AUC(0-inf) ([1]; both, human, in vivo): 5.35 ng·h/mL
AUC(0-t) ([1]; both, human, in vivo, AUC0-24, Mean, serum, Day 1): 3.75 ng·h/mL
AUC(0-t) ([1]; both, human, in vivo, AUC0-24, Mean, serum, Day 21): 6.79 ng·h/mL
AUC(0-t) ([1]; both, human, in vivo, AUC0-t, Mean, serum, Day 1): 3.12 ng·h/mL
half-life ([1]; both, human, in vivo, T1/2, Mean, serum, Day 1): 12.4 h
half-life ([1]; both, human, in vivo, T1/2, Mean, serum, Day 21): 24.1 h
half-life ([1]; both, human, in vivo, T1/2 EFF, Mean, serum, Day 21): 31.3 h
λz, Mean ([1]; serum, Day 1): 0.0756 h⁻¹
λz EFF, Mean ([1]; serum, Day 21): 0.0380 h⁻¹
λz, Mean ([1]; serum, Day 21): 0.0370 h⁻¹

CC(C)Cn1cnc2c(N)nc3ccccc3c21 [imiquimod, 1-(2-methylpropyl)-1H-imidazo[4,5-c]quinolin-4-amine]
Tumors in oral carcinogenicity study [2]: No treatment related tumors
Signs of CNS toxicity ([3]; lower repeat doses (100 mg/kg or lower)): did not occur
LD50 ([3]; monkey, iv, LD50, Monkey, intravenous bolus): > 6 mg/kg
LD50 ([3]; monkey, iv, LD50, Monkey, intravenous infusion): ~8 mg/kg
LD50 ([3]; monkey, po, LD50, Monkey): > 200 mg/kg
LD50 ([3]; mouse, ip, LD50, Mouse, Intraperitoneal): 879 mg/kg
LD50 ([3]; mouse, po, LD50, Mouse): 403 mg/kg
Single dose toxicity ([3]; oral, intraperitoneal, subcutaneous or intravenous, lethal doses): central nervous system (CNS) stimulation and convulsions
LD50 ([3]; rat, ip, LD50, Rat, Intraperitoneal): 763 mg/kg
LD50 ([3]; rat, po, LD50, Rat): 1660 mg/kg
LD50 ([3]; rat, sc, LD50, Rat, Subcutaneous): ~20 mg/kg
Embryofetal toxicity or teratogenicity ([4]; 5 mg/kg/day (73×MRHD based on AUC)): No treatment related effects
Fetal effects ([4]; 20 mg/kg/day (375×MRHD based on AUC), in the presence of maternal toxicity): increased resorptions, decreased fetal body weights, delays in skeletal ossification, bent limb bones
Teratogenicity ([5]; 3 mg/kg/day (24×MRHD based on AUC)): No treatment related effects
Finding in F1 fetuses ([5]; 6 mg/kg/day (50×MRHD), absence of maternal toxicity): bent limb bones
Tumor development with UV radiation [6]: No additional effect on tumor development beyond the vehicle effect
LD50 ([7]; Rabbit, Dermal): >5000 mg/kg
Acute dermal toxicity ([7]; rabbits, under occlusion, 5000 mg/kg): did not reveal any toxic effects
Most clinically serious adverse event [8]: hypotension
Embryofetal toxicity or teratogenicity ([9]; 1 mg/kg/day (234×MRHD based on AUC)): No treatment related effects
Embryofetal toxicity or teratogenicity ([9]; 2 mg/kg/day (2.1×MRHD based on BSA)): No treatment related effects
Geometric LS Mean, Reference (trough serum concentration) ([1]; Day 14 vs. Day 7, N 13): 0.1543
Geometric LS Mean, Test (trough serum concentration) ([1]; Day 14 vs. Day 7, N 13): 0.1749
Geometric LS Mean, Reference (trough serum concentration) ([1]; Day 21 vs. Day 14, N 11): 0.1874
Geometric LS Mean, Test (trough serum concentration) ([1]; Day 21 vs. Day 14, N 11): 0.1571
Geometric LS Mean, Reference (trough serum concentration) ([1]; Day 22 vs. Day 21, N 12): 0.1643
Geometric LS Mean, Test (trough serum concentration) ([1]; Day 22 vs. Day 21, N 12): 0.1839
concentration at 7 day (trough, evening prior to application) ([1]; both, human, in vivo, Geometric LS Mean, Reference (trough serum concentration), Secondary steady-state analysis (BLQ replaced with LLOQ/2), Day 14 vs. Day 7, N 17): 0.127 ng/mL
concentration at 14 day (trough, evening prior to application) ([1]; both, human, in vivo, Geometric LS Mean, Reference (trough serum concentration), Secondary steady-state analysis (BLQ replaced with LLOQ/2), Day 21 vs. Day 14, N 15): 0.115 ng/mL
concentration at 14 day (trough, evening prior to application) ([1]; both, human, in vivo, Geometric LS Mean, Test (trough serum concentration), Secondary steady-state analysis (BLQ replaced with LLOQ/2), Day 14 vs. Day 7, N 17): 0.126 ng/mL
concentration at 22 day (trough, 24 h after the Day 21 application) ([1]; both, human, in vivo, Geometric LS Mean, Test (trough serum concentration), Secondary steady-state analysis (BLQ replaced with LLOQ/2), Day 22 vs. Day 21, N 15): 0.156 ng/mL
QT increase ([10]; 150 nM, BCL of 2000 ms, comparable to DMSO vehicle): 4%
Proarrhythmic events ([10]; any preparation at any concentration): did not cause any proarrhythmic events
Effect on QT interval ([10]; concentration range tested): does not have a significant effect
Effect on Tp-e interval ([10]; concentration range tested): no significant effect
Effect on QRS duration ([10]; imiquimod 0.5-150 nM, cisapride at 0.5 uM): no significant effect
Mutagenic or clastogenic potential [11]: no evidence of mutagenic or clastogenic potential

COc1cc(N)c(Cl)cc1C(=O)NC1CCN(CCCOc2ccc(F)cc2)CC1OC (stereo not shown) [cisapride]
Effect on Tp-e interval [10]: marked concentration-dependent Tp-e prolongation
Equivocal EAD (preparations) ([10]; both, New Zealand White, rabbit, 0.5 uM): 1 of 4
